From patent US20230101743A1, “SUBSTITUTED TRIAZINE COMPOUNDS AND USES THEREOF” (MUSC FOUNDATION FOR RESEARCH DEVELOPMENT, priority 2020, published 2023)

Experiments:
[1] = tested on: hepatic markers (ALB, AFP, HNF4α, SLC10A1, ASGR1); assay: Hepatic marker expression (real-time qPCR, immunofluorescence); format: cell-based, human; settings: 2 μg/mL, 24 hours
Protocol: C. Human iPSC-derived hepatocytes were treated with 2 μg/mL of DL-1 for 24 hours. (A) mRNA level of hepatic markers (ALB, AFP, HNF4α, SLC10A1, ASGR1) were determined via real-time qPCR. (B) Cells were fixed and immunofluorescence was performed to determine HNF4 and ALB level. […] Data are shown as mean SEM of […] (n=4).
For hepatic marker expression analysis, human iPSC-derived hepatocytes (Day 20) were treated with 2 μg/mL of DL-1 for 24 hours. Cells were fixed in 4% paraformaldehyde (PFA) and penetrated with 0.1% Triton-X-100. Cells were incubated with primary antibodies (ALB, 1:1000, Dako; HNF4-a, 1:1000, Santa Cruz) overnight at 4 degrees and then switched to secondary antibodies (Alexa Flour 488 goat anti-rabbit, 1:1000, Invitrogen; Alexa Flour 594 rabbit anti-mouse, 1:2000, Invitrogen). Images were taken using Bio-Rad Zoe™ Fluorescent Cell Imager (Bio-Rad). For intracellular APOB localization, iPSC-heps were treated with 0, 3, 12, 48 μg/mL of DL-9 for 24 hours, and cells were fixed in 4% PFA followed by 0.1% Triton-X-100 penetration. […] Integrated fluorescent intensity was normalized by total cell counts, which is determined by DAPI staining.
Human iPSC-derived hepatocytes (Day 20) were treated with 2 μg/mL of DL-1 for 24 hours. […] Quantitative real-time PCR was performed on a BioRad CFX384 real-time PCR machine.

[2] = tested on: Intracellular APOB; assay: Intracellular APOB protein by immunoblot; format: cell-based, human; settings: 2 μg/mL, 24 hours
Protocol: G. Human iPSC-derived hepatocytes were treated with 2 μg/mL of DL-1 or equivalent concentration of DMSO for 24 hours. […] (A) APOB mRNA level was determined using real-time qPCR. (B) Intracellular APOB, LDLR, and HSP90 protein levels were determined via immunoblot. (C) Quantification of biological replicates of immunoblots on samples treated as in (B). Data are shown as mean±SEM of four replicates (n=4).
C. Human iPSC-derived hepatocytes (iPSC-Heps) were treated with 2 μg/mL of DL-1 or equivalent concentration of DMSO for 24 hours. In FIG. 7A, APOB mRNA level was determined using real-time qPCR. In FIG. 7B Intracellular APOB, LDLR, and HSP90 protein levels were determined via immunoblot; Quantification of biological replicates of immunoblots. […] In FIG. 12A LDL uptake assay was performed by pre-treating cells with 2 μg/mL of DL-1, 20 μM of Atorvastatin, and equivalent concentration of DMSO for 24 hours followed by 4 hours of pHrodo-LDL exposure; LDL endocytosis was determined and quantified by fluorescence image; data are shown as mean±SD of triplicates (n=3). […]
(§1) Immunoprecipitation of cell lysates was performed using protein G magnet beads (ThermoFisher) and anti-APOB (LDL20/17, Mabtech) antibodies. […] Expression levels were quantified via integrated intensity normalized by 5% of input of each sample. […] Signals were detected using HRP-conjugated secondary antibodies. […]

[3] = tested on: Hepatic neutral lipid; assay: Neutral lipid staining (BODIPY 493/503) in iPSC-derived hepatocytes; format: cell-based, human; settings: 72 hours; DL-1 2 μg/mL, CP-346086 20 nM
Protocol: H. Human iPSC derived hepatocytes were treated with DL-1 (2 μg/mL) and MTTP inhibitor CP-346086 (20 nM) for 72 hours. […] (A) Hepatic neutral lipid was determined by staining with 2 μM of BODIPYTM 493/503 for 15 mins and fixed with 4% PFA for microscopy. Nuclei were stained blue by DAPI. Scale bar=100 μm. […] Data are shown as mean±SEM of ten replicates (n=10); ***p<0.001.
K3 iPSC-derived hepatocytes (Day 20) were treated with or without 2 μg/mL of DL-1 or 20 nM of CP-346086 (Sigma) for 72 hours with daily medium change. At the time-point of interest, cells were treated with 2 μM of BODIPY® 493/503 staining solution (ThermoFisher) and 5 μg/mL of Hoechst 33342 (ThermoFisher) in PBS at 37 degrees for 15 minutes. Cells were washed with sterile PBS three times and then fixed with 4% PFA. Fluorescence images were taken using Bio-rad Zoeυ Fluorescent Cell Imager (Bio-Rad) and KEYENCE BZ-X800E Fluorescence Microscope (KEYENCE). Integrated fluorescent intensity was normalized by total cell counts, which is determined by DAPI staining.

[4] = tested on: Intracellular APOB; assay: Intracellular APOB accumulation (LDL uptake, pulse-chase, immunofluorescence); format: cell-based; settings: human iPSC-derived hepatocytes
Protocol: C. Human iPSC-derived hepatocytes (iPSC-Heps) were treated with 2 μg/mL of DL-1 or equivalent concentration of DMSO for 24 hours. In FIG. 7A, APOB mRNA level was determined using real-time qPCR. In FIG. 7B Intracellular APOB, LDLR, and HSP90 protein levels were determined via immunoblot; Quantification of biological replicates of immunoblots. Data are shown as mean±SD of four replicates (n=4). In FIG. 12A LDL uptake assay was performed by pre-treating cells with 2 μg/mL of DL-1, 20 μM of Atorvastatin, and equivalent concentration of DMSO for 24 hours followed by 4 hours of pHrodo-LDL exposure; LDL endocytosis was determined and quantified by fluorescence image; data are shown as mean±SD of triplicates (n=3). In FIG. 12B, iPSC-Heps were pre-treated with 3, 12, and 48 μg/mL of DL-9 for 2 hours, and cells were pulse-labeled with [^35S]methionine for 10 minutes and chased for 120 mins with or without DL-9 treatment; intracellular ^35S-APOB were determined by immunoprecipitation using anti-APOB antibody; band density was quantified and normalized with 5% of input (n=3). […]
as §1

SMILES: Sc1nc(S)nc(Nc2ccc(Nc3ccccc3)cc2)n1 (racemic) [DL-1, 6-{[4-(phenylamino)phenyl]amino}-1,3,5-triazine-2,4-dithiol]
- hepatic character (hepatic marker mRNA, HNF4 and ALB immunofluorescence) [1]: no impact on hepatic characters
- intracellular APOB protein level [2]: no impact on APOB mRNA and intracellular protein levels
- hepatic lipid accumulation (neutral lipid level) [3]: no impact on hepatic lipid accumulation
- intracellular APOB accumulation [4]: induced intracellular APOB accumulation independently of mRNA expression and LDL uptake
